Results taken from patent EP3818977A1, “CD93 INHIBITORS FOR USE IN THE TREATMENT OF CANCER” (Universität Bern, priority 2019, dated 2021).

Legend:
murine LSCs = experiment: Colony assay of murine LSCs in methylcellulose; assay type: cell-based, mouse
Protocol: Colony assays from BM lin^- cells of CML and naive mice and CD34^+ stem/progenitor cells of human CML patients were performed as described before ([…] et al. 2015). For mouse colony assays 10^3 FACS-purified LSKs or LSCs were plated in methylcellulose and colonies were enumerated 7 days later. For serial re-plating experiments, 10^4 cells were collected from preceding colony assays and re-plated in methylcellulose. Colonies were enumerated 7 days later. For experiments using metoclopramide (Sigma), 10^3 FACS-purified murine LSCs or 2x10^3 human CD34^+ […] methylcellulose. Colony were enumerated 7 days and 14 days later, respectively. For re-plating assays 10^4or 2x10^4 cells isolated from primary mouse and human colony assays, respectively, were subsequently replated in methylcellulose in the absence of any compound. Colony were enumerated 7 days and 14 days later, respectively.

human CD34^+CD38^- LSCs = experiment: Colony and re-plating assay of human CML stem/progenitor cells in semisolid culture; assay type: cell-based; details: 0.1µM, semisolid cultures, compared to control treatment
Protocol: Colony assays from BM lin^- cells of CML and naive mice and CD34^+ stem/progenitor cells of human CML patients were performed as described before (Riether et al. 2015).
For experiments using metoclopramide (Sigma), 10^3 FACS-purified murine LSCs or 2x10^3 human CD34^+ stem/progenitor cells were incubated overnight in 96 well V-bottom plates in the presence of 0.1 and 1µM metoclopramide or vehicle followed by plating methylcellulose. Colony were enumerated 7 days and 14 days later, respectively.
For re-plating assays 10^4or 2x10^4 cells isolated from primary mouse and human colony assays, respectively, were subsequently replated in methylcellulose in the absence of any compound. Colony were enumerated 7 days and 14 days later, respectively.

SMILES	colony formation of murine LSCs (murine LSCs)	clonogenic potential of CD93-competent LSCs (murine LSCs; in vitro, BL/6 LSCs cultured overnight with 1mM metoclopramide (Fig. 6H), colonies assessed 7 days later)	colony formation of CD93-deficient LSCs (murine LSCs; in vitro, Cd93^-/- LSCs cultured overnight with 1mM metoclopramide (Fig. 6H), colonies assessed 7 days later)	colony formation (human CD34^+CD38^- LSCs)	re-plating capacity (human CD34^+CD38^- LSCs; re-plating in the absence of compound)
CCN(CC)CCNC(=O)c1cc(Cl)c(N)cc1OC [metoclopramide, Metoclopramide]	effective in reducing colony formation of murine LSCs	reduced clonogenic potential of CD93-competent LSCs to comparable levels as CD93-deficient LSCs	without further affecting colony formation of CD93-deficient LSCs	significantly impaired	significantly impaired
CC(CN1c2ccccc2Sc2ccccc21)N(C)C (stereo not drawn) [promethazine, Promethazine]	effective in reducing colony formation of murine LSCs				
